Reference: ChEMBL document CHEMBL1201862, “PubChem BioAssay data set” (2004)
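How tested: cells in 96-well plates exposed to compound for 48 hours at five concentrations. Here, GI50 denotes the concentration required for 50% inhibition of growth.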 Calls of active or inactive are those of the source. Cut-off read from the data, not from the text of the source: active = GI50 up to about 1.1 µM and inactive = higher.

Legend:
Assay in all cases: NCI tumour cell line growth inhibition, 48 h
BT-549 = tested on: BT-549
DU-145 = tested on: DU-145
HCT-15 = tested on: HCT-15
KM12 = tested on: KM12
M14 = tested on: M14
MOLT-4 = tested on: MOLT-4
NCI-H226 = tested on: NCI-H226
OVCAR-3 = tested on: OVCAR-3
OVCAR-4 = tested on: OVCAR-4
PC-3 = tested on: PC-3
RPMI-8226 = tested on: RPMI-8226
SK-MEL-28 = tested on: SK-MEL-28
SK-MEL-2 = tested on: SK-MEL-2
SN12C = tested on: SN12C
SNB-19 = tested on: SNB-19
SR = tested on: SR
SW-620 = tested on: SW-620
TK-10 = tested on: TK-10
UO-31 = tested on: UO-31
Hs-578T = tested on: Hs-578T

Row | Compound | GI50 (BT-549) | GI50 (DU-145) | GI50 (HCT-15) | GI50 (KM12) | GI50 (M14) | GI50 (MOLT-4) | GI50 (NCI-H226) | GI50 (OVCAR-3) | GI50 (OVCAR-4) | GI50 (PC-3) | GI50 (RPMI-8226) | GI50 (SK-MEL-28) | GI50 (SK-MEL-2) | GI50 (SN12C) | GI50 (SNB-19) | GI50 (SR) | GI50 (SW-620) | GI50 (TK-10) | GI50 (UO-31) | GI50 (Hs-578T)
1 | COc1ccc(/C=C2\CCCCCC2=O)cc1 | > 100 µM (inactive) | > 100 µM (inactive) | > 100 µM | > 100 µM (inactive) | > 100 µM (inactive) | > 100 µM (inactive) | > 100 µM (inactive) | > 100 µM (inactive) | > 100 µM (inactive) | > 100 µM (inactive) | > 100 µM (inactive) | > 100 µM (inactive) | > 100 µM (inactive) | > 100 µM (inactive) | > 100 µM (inactive) | > 100 µM (inactive) | > 100 µM (inactive) | > 100 µM (inactive) | > 100 µM (inactive) | –
2 | CC(=O)N(C(C)=O)n1c(-c2ccccc2)n[nH]c1=O | > 100 µM (inactive) | > 100 µM (inactive) | > 100 µM | > 100 µM (inactive) | > 100 µM (inactive) | > 100 µM (inactive) | – | > 100 µM (inactive) | > 100 µM (inactive) | > 100 µM (inactive) | > 100 µM (inactive) | > 100 µM (inactive) | > 100 µM (inactive) | > 100 µM (inactive) | > 100 µM (inactive) | > 100 µM (inactive) | > 100 µM (inactive) | > 100 µM (inactive) | > 100 µM (inactive) | –
3 | COc1ccc(/C=C2\N=C3Sc4c([nH]cnc4=O)N3C2=O)cc1 | – | > 100 µM (inactive) | > 100 µM | > 100 µM (inactive) | > 100 µM (inactive) | > 100 µM (inactive) | > 100 µM (inactive) | > 100 µM (inactive) | > 100 µM (inactive) | > 100 µM (inactive) | > 100 µM (inactive) | > 100 µM (inactive) | > 100 µM (inactive) | > 100 µM (inactive) | > 100 µM (inactive) | – | > 100 µM (inactive) | > 100 µM (inactive) | > 100 µM (inactive) | > 100 µM (inactive)
4 | Nc1ncnc2c1ncn2CC(OCP(=O)(O)O)Oc1ccccc1 (configuration not stated) | – | > 100 µM (inactive) | > 100 µM | > 100 µM (inactive) | > 100 µM (inactive) | – | > 100 µM (inactive) | > 100 µM (inactive) | > 100 µM (inactive) | > 100 µM (inactive) | > 100 µM (inactive) | > 100 µM (inactive) | > 100 µM (inactive) | > 100 µM (inactive) | > 100 µM (inactive) | – | > 100 µM (inactive) | > 100 µM (inactive) | > 100 µM (inactive) | > 100 µM (inactive)
5 | COC(=O)C1(CCCCl)CCCN1C(=O)OC(C)(C)C (configuration not stated) | > 100 µM (inactive) | > 100 µM (inactive) | > 100 µM | > 100 µM (inactive) | – | – | 75.5 µM (inactive) | > 100 µM (inactive) | > 100 µM (inactive) | > 100 µM (inactive) | – | > 100 µM (inactive) | > 100 µM (inactive) | > 100 µM (inactive) | > 100 µM (inactive) | 10.5 µM (inactive) | > 100 µM (inactive) | > 100 µM (inactive) | > 100 µM (inactive) | –
6 | Cc1nc2ccc(Br)cc2c(=O)n1-c1nnc(C(C)(C)C)s1 | – | > 10 µM (inactive) | > 10 µM | > 10 µM (inactive) | > 10 µM (inactive) | > 10 µM (inactive) | > 10 µM (inactive) | > 10 µM (inactive) | > 10 µM (inactive) | > 10 µM (inactive) | > 10 µM (inactive) | > 10 µM (inactive) | > 10 µM (inactive) | > 10 µM (inactive) | > 10 µM (inactive) | > 10 µM (inactive) | > 10 µM (inactive) | > 10 µM (inactive) | 2 µM (inactive) | 7.46 µM (inactive)
7 | O=C(O)c1cc2ccccc2c(/N=N/c2ccc(S(=O)(=O)Nc3nccs3)cc2)c1O | – | > 100 µM (inactive) | > 100 µM | > 100 µM (inactive) | > 100 µM (inactive) | > 100 µM (inactive) | > 100 µM (inactive) | > 100 µM (inactive) | > 100 µM (inactive) | > 100 µM (inactive) | > 100 µM (inactive) | > 100 µM (inactive) | > 100 µM (inactive) | > 100 µM (inactive) | – | > 100 µM (inactive) | > 100 µM (inactive) | > 100 µM (inactive) | > 100 µM (inactive) | > 100 µM (inactive)
8 | COC(=O)n1c(C[P+](c2ccccc2)(c2ccccc2)c2ccccc2)cc2ccccc21 | – | – | 13.3 µM | 1.19 µM (inactive) | 1.13 µM (inactive) | 1.64 µM (inactive) | 1.73 µM (inactive) | 1.01 µM (active) | 5.92 µM (inactive) | – | 0.352 µM (active) | 4.16 µM (inactive) | 0.661 µM (active) | 2.26 µM (inactive) | 1.31 µM (inactive) | 2.67 µM (inactive) | 1.85 µM (inactive) | 3.34 µM (inactive) | 0.604 µM (active) | –
9 | O=c1[nH]c(-c2ccc(-c3nc4cc([N+](=O)[O-])ccc4c(=O)[nH]3)cc2)nc2cc([N+](=O)[O-])ccc12 | – | – | > 100 µM | > 100 µM (inactive) | > 100 µM (inactive) | > 100 µM (inactive) | > 100 µM (inactive) | > 100 µM (inactive) | 48.8 µM (inactive) | – | > 100 µM (inactive) | > 100 µM (inactive) | > 100 µM (inactive) | > 100 µM (inactive) | > 100 µM (inactive) | > 100 µM (inactive) | > 100 µM (inactive) | > 100 µM (inactive) | > 100 µM (inactive) | –
10 | O=c1cc(-c2ccccc2)[nH]c2cc(F)c(F)cc12 | – | 0.472 µM (active) | 0.472 µM | 0.326 µM (active) | 0.392 µM (active) | 0.438 µM (active) | 1.55 µM (inactive) | 0.34 µM (active) | > 51.4 µM (inactive) | 0.222 µM (active) | 0.309 µM (active) | 1.72 µM (inactive) | 3.01 µM (inactive) | 1.97 µM (inactive) | 0.718 µM (active) | 0.189 µM (active) | 0.355 µM (active) | 3.83 µM (inactive) | 0.805 µM (active) | 0.423 µM (active)
11 | C/C(=C/c1ccccc1)CN(C(=O)/C=C\Sc1ccccc1)C(C)(C)C | > 43.7 µM (inactive) | > 100 µM (inactive) | 37.2 µM | > 100 µM (inactive) | > 100 µM (inactive) | 3.87 µM (inactive) | > 94.4 µM (inactive) | > 75.3 µM (inactive) | > 87.5 µM (inactive) | > 68.7 µM (inactive) | 21.2 µM (inactive) | > 100 µM (inactive) | > 75.9 µM (inactive) | > 100 µM (inactive) | > 100 µM (inactive) | 19.6 µM (inactive) | > 100 µM (inactive) | > 100 µM (inactive) | > 52 µM (inactive) | –
12 | CNC(=O)N(CCC#N)CCN(CCN(C(=O)NC)c1ccccc1)C(=O)NC | > 100 µM (inactive) | > 100 µM (inactive) | > 100 µM | > 100 µM (inactive) | > 100 µM (inactive) | > 100 µM (inactive) | > 100 µM (inactive) | > 100 µM (inactive) | > 100 µM (inactive) | > 100 µM (inactive) | > 100 µM (inactive) | > 100 µM (inactive) | > 100 µM (inactive) | > 100 µM (inactive) | > 100 µM (inactive) | > 100 µM (inactive) | > 100 µM (inactive) | > 100 µM (inactive) | > 100 µM (inactive) | –
13 | CCn1ncc2c1nc(-c1ccccc1)c[n+]2[O-] | – | 5.82 µM (inactive) | > 100 µM | > 100 µM (inactive) | 77.6 µM (inactive) | > 100 µM (inactive) | – | > 100 µM (inactive) | – | > 100 µM (inactive) | > 100 µM (inactive) | > 100 µM (inactive) | > 100 µM (inactive) | > 100 µM (inactive) | > 100 µM (inactive) | > 100 µM (inactive) | – | – | 62.8 µM (inactive) | 61.1 µM (inactive)
14 | NC[C@H]1Nc2ccccc2[C@@H](O)C1O (some centres not stated) | – | > 100 µM (inactive) | > 100 µM | > 100 µM (inactive) | > 100 µM (inactive) | > 100 µM (inactive) | > 100 µM (inactive) | > 100 µM (inactive) | > 100 µM (inactive) | > 100 µM (inactive) | > 100 µM (inactive) | > 100 µM (inactive) | > 100 µM (inactive) | > 100 µM (inactive) | > 100 µM (inactive) | > 100 µM (inactive) | > 100 µM (inactive) | > 100 µM (inactive) | > 100 µM (inactive) | > 100 µM (inactive)
15 | CC(C)[C@H]1CO[C@]2(C)[C@@H]3CN(Cc4ccccc4)C[C@@H]3C(=O)N12 | – | – | > 100 µM | > 100 µM (inactive) | > 100 µM (inactive) | > 100 µM (inactive) | > 100 µM (inactive) | > 100 µM (inactive) | > 100 µM (inactive) | – | > 100 µM (inactive) | > 100 µM (inactive) | > 100 µM (inactive) | > 100 µM (inactive) | > 100 µM (inactive) | > 100 µM (inactive) | > 100 µM (inactive) | > 100 µM (inactive) | > 100 µM (inactive) | –
16 | O=C(c1ccccc1)N1C(=S)N(c2ccccn2)C(=N/c2ccccc2)/C1=N\c1ccccc1 | – | > 61.9 µM (inactive) | 3.79 µM | 5.43 µM (inactive) | 55.6 µM (inactive) | 4.01 µM (inactive) | > 69.3 µM (inactive) | 18.2 µM (inactive) | 10.5 µM (inactive) | 9.84 µM (inactive) | 7.91 µM (inactive) | 22.3 µM (inactive) | 13.6 µM (inactive) | 31.5 µM (inactive) | 25.5 µM (inactive) | 3.86 µM (inactive) | 5.19 µM (inactive) | 25.1 µM (inactive) | 9.68 µM (inactive) | –
